Experimental findings from patent US9577283B2, “Energy storage battery” (NISSIN ELECTRIC CO., LTD., priority 2012, dated 2017) are described below.

This data set in a line: attempt to prepare 0.2 mol/L aqueous solution of Mn(II) complex (deposition of manganese compound). The data set is classed as physicochemical. As to conditions: target concentration 0.2 mol/L, metal:ligand 1:1, pH 7, with Na2SO4. From the text: Accordingly, it was known that if malonic acid as a polycarboxylic acid is used instead of polyethyleneimine, it is impossible to prepare a cathode electrolyte containing a Mn(II) complex in a sufficient concentration.
Accordingly, it was known that if succinic acid as a polycarboxylic acid is used instead of polyethyleneimine, it is impossible to prepare a cathode electrolyte containing a Mn(II) complex at a sufficient concentration.
Accordingly, it was known that if ethylenediamine is used instead of polyethyleneimine, it is impossible to prepare a cathode electrolyte containing a Mn(II) complex at a sufficient concentration.
Meanwhile, the cathode electrolyte was prepared as follows. Firstly, 0.1 mol (6.0 g) of ethylenediamine was added to and dissolved in 70 ml of distilled water.

Mn(II)-malonic acid complex: the “deposition of manganese compound on preparing aqueous solution” value is recorded as “manganese compound is immediately deposited”.
